Laboratory results from US12629382B2, “Therapy” (Vestlandets Innovasjonsselskap AS, priority 2019, dated 2026).

Assays:
Type in all cases: cell-based
A375 = assay: Intracellular GSH, GSH-Glo assay, A375 cells; conditions: Homo sapiens, 48 h, normalized to untreated control; for activity at 250 µM: A-375, 250 μM compound, read-out: Intracellular GSH level A375 250 μM; for activity at 500 µM: A-375, 500 μM compound, read-out: Intracellular GSH level A375 500 μM
Experimental: (§1) The cancer cell lines A172, A375, U87 and MCF7 were purchased from American Type Culture Collection (ATCC; Manassas, Va., USA). Cells were cultured in Dulbecco's Modified Eagle's Medium (DMEM) supplemented with 10% fetal bovine serum, 2% v/v L-glutamine, 3.2% v/v non-essential amino acids, antibiotics 2% v/v (penicillin-streptomycin), and 0.02% v/v Plasmocin at 37° C. and 5% CO2.
(§2) xCT expression of cancer cell lines was evaluated by western blotting from protein samples of cell lysates as described in Sleire et al., Oncogene 34: 5951-5959, 2015. Protein concentrations were determined by BCA assay (Thermo Fisher Scientific, USA) followed by SDS PAGE and immunoblotting using rabbit anti-xCT (Thermo Fisher Scientific) and rabbit anti-GAPDH (Abcam, Cambridge, UK) as a loading control. The compounds were dissolved in dimethylsulfoxide (DMSO) (Sigma Aldrich, Germany) and stock concentrations of 100 mM were stored at −20° C. in aliquots. Final concentrations were made in growth medium before adding to the cell monolayers.
(§3) The compounds were evaluated based on the measurement of intracellular Glutathione (GSH) which was performed by the GSH-Glo assay (Promega, Madison, WI, USA, cat #V6912) according to the manufacturer's recommended procedures. 5000 cells per well were seeded in a flat bottomed 96-well plate. After attachment to the well surface, cells were exposed to 250 μM and 500 μM of each compound for 48 h. After that, GSH-Glo reagent was added followed by short incubation and addition of luciferin detection reagent. Bioluminescence was measured using a luminometer (Victor 3 1420 multi-label counter, Perkins Elmer, Waltham, MA, USA). IC50 doses for the compounds SAS, DC10 and DC14 were determined in A172 glioma cells, using the GraphPad Prism v6 software (GraphPad Software, Inc. CA, USA). All measurements were normalized to the untreated control and were performed three times.

MCF7 = assay: Intracellular GSH, GSH-Glo assay, MCF7 cells; conditions: Homo sapiens, 48 h, normalized to untreated control; for activity at 250 µM: 250 μM compound, read-out: Intracellular GSH level MCF7 250 μM; for activity at 500 µM: 500 μM compound, read-out: Intracellular GSH level MCF7 500 μM
Experimental: as §1, §2, §3

A172 glioma cells = assay: Intracellular GSH, GSH-Glo assay, A172 cells; conditions: Homo sapiens, 48 h, normalized to untreated control; for activity at 250 µM: A 172, 250 μM compound, read-out: Intracellular GSH level A172 250 μM; for activity at 500 µM: A 172, 500 μM compound, read-out: Intracellular GSH level A172 500 μM
Experimental: as §1, §2, §3

U87 = assay: Intracellular GSH, GSH-Glo assay, U87 cells; conditions: Homo sapiens, U-87 MG, 48 h, normalized to untreated control; for activity at 250 µM: 250 μM compound, read-out: Intracellular GSH level U87 250 μM; for activity at 500 µM: 500 μM compound, read-out: Intracellular GSH level U87 500 μM
Experimental: as §1, §2, §3

| SMILES | activity at 250 µM (A375) [%] | activity at 500 µM (A375) [%] | activity at 250 µM (MCF7) [%] | activity at 500 µM (MCF7) [%] | activity at 250 µM (A172 glioma cells) [%] | activity at 500 µM (A172 glioma cells) [%] | activity at 250 µM (U87) [%] | activity at 500 µM (U87) [%] |
| --- | --- | --- | --- | --- | --- | --- | --- | --- |
| Nc1ccc(/C=C/c2ccccc2)cc1C(=O)O [DC12, (E)-2-amino-5-styrylbenzoic acid] | 116 | 95.6 | 116 | 96.5 | 107 | 101 | 104 | 117 |
| CSc1ccc(/C=C/c2ccc(O)c(C(=O)O)c2)cc1 [DC08, (E)-2-hydroxy-5-(4-(methylthio)styryl)benzoic acid] | 25.9 | 3.7 | 21.1 | 6.6 | 28.8 | 9.3 | 51.1 | 8.4 |
| O=C(O)c1cc(-c2ccc3ccccc3c2)ccc1O [DC11, 2-hydroxy-5-(naphthalen-2-yl)benzoic acid] | 36.1 | 11.8 | 23.7 | 8.8 | 28.4 | 10.2 | 62.6 | 22.7 |
| O=C(O)c1cc(-c2ccc(-c3ccccc3)cc2)ccc1O [DC17, 4-hydroxy-[1,1′:4′,1″-terphenyl]-3-carboxylic acid] | 56.6 | 4.6 | 51.7 | 17 | 98.4 | 28.7 | 66.2 | 20.2 |
| COc1ccc(/C=C\c2ccccc2)cc1C(=O)O [DC03, (Z)-2-methoxy-5-styrylbenzoic acid] | 68.6 | 47.6 | 94.9 | 49.4 | 77.5 | 68.2 | 87.9 | 88.4 |
| COc1ccc(/C=C/c2ccccc2)cc1C(=O)O [DC01, (E)-2-methoxy-5-styrylbenzoic acid] | 60.5 | 43.1 | 93.8 | 66.5 | 84.6 | 76.2 | 76.6 | 79.6 |
| CS(=O)(=O)c1ccc(/C=C/c2ccc(O)c(C(=O)O)c2)cc1 [DC13, (E)-2-hydroxy-5-(4-(methylsulfonyl)styryl)benzoic acid] | 74.3 | 59.7 | 88.3 | 76.6 | 94.1 | 81.6 | 105 | 103 |
| O=C(O)c1cc(/C=C/c2ccc(F)cc2)ccc1O [DC07, (E)-5-(4-fluorostyryl)-2-hydroxybenzoic acid] | 23.8 | 7.8 | 22.1 | 6.9 | 81.6 | 16.8 | 50.4 | 11.7 |
| CC1(C)c2ccccc2-c2ccc(/C=C/c3ccc(O)c(C(=O)O)c3)cc21 [DC21, (E)-5-(2-(9,9-dimethyl-9H-fluoren-2-yl)vinyl)-2-hydroxybenzoic acid] | 4.2 | 3.3 | 5.7 | 4.2 | 4.9 | 2.8 | 5 | 3.8 |
